Experimental data taken from patent publication US9675646B2, “Tubular bioengineered smooth muscle structures” (WAKE FOREST UNIVERSITY HEALTH SCIENCES, priority 2012, dated 2017).
Where no end group is shown, it is not given here.

Test system: rabbit esophageal circular smooth muscle tissue constructs
Assay: Real time isometric force generation of bioengineered esophageal smooth muscle constructs
Assay type: cell-based
Details: isometric force transducer, tissue bath 37° C., constructs taken off chitosan scaffold, stretch baseline set to zero
Source text: Tubular esophageal tissue was tissue-engineered to mimic the mechanical and physiological function of a native esophagus. Several concentrically aligned esophageal circular smooth muscle tissue constructs were bioengineered using collagen hydrogel. Three-dimensional smooth muscle tissue constructs were bioengineered. Rabbit esophageal constructs were bioengineered by laying down 5×10^5 rabbit esophageal circular smooth muscle cells in collagen gel on a Sylgard-coated plate with a central post. The smooth muscle constructs were placed around a 2.5 cm long hollow chitosan tube and biodegradable surgical glue was applied between the smooth muscle constructs and along their circumference. The constructs were maintained around the scaffold in culture for 5 days. The constructs were taken off the scaffold and tested to determine cholinergic contraction in response to Acetylcholine (Ach) and relaxation in response to vasoactive intestinal peptide (VIP). An isometric force transducer (Harvard Apparatus, Holliston, Mass.) was used to record real time force generated by the constructs. The constructs were kept incubated in a warm tissue bath keeping the tissue samples at conditions of 37° C.±1° C. The bioengineered tissue constructs were taken off the scaffold at day 15 for force generation measurement. […]

Question: CC(=O)OCC[N+](C)(C)C [Ach, Acetylcholine] was tested. Which “contraction (change in force generation)” value (FIG. 1) did it give?
Answer: 45 μN

Question: Which “relaxation (change in force generation)” value (FIG. 2) does the source give for “vasoactive intestinal peptide (HSDAVFTDNYTRLRKQMAVKKYLNSILN; ends and bridges not checked; UniProt P01282 125-152, looked up) [VIP, relaxant peptide used to test construct relaxation]” here?
Answer: −35 μN
